Reference: the NIST ThermoML archive (doi:10.1021/acs.jced.8b00063)
Several values for one entry are separate records, joined by “and”; a condition that tells them apart may be missing. Equal values may be shown once.

Columns and labels:
[1] = refractive index (Na D-line) (dimensionless); xn = mol fraction of the nth substance listed; settings: 293.15 K, 93.9 kPa, Liquid, Standard Abbe refractometry
[2] = refractive index (Na D-line) (dimensionless); settings: Liquid, Standard Abbe refractometry
[3] = Liquid, Ebulliometric method (Recirculating still)

CC(=O)OC(C)C [1-methylethyl ethanoate] + COc1ccccc1
[1]
Settings	refractive index
x1 = 0.1058	1.5013
x1 = 0.1227	1.499
x1 = 0.1703	1.4924
x1 = 0.1794	1.4915
x1 = 0.2163	1.4872
x1 = 0.2803	1.4768
x1 = 0.3303	1.4727
x1 = 0.3684	1.4673
x1 = 0.4254	1.4561
x1 = 0.4928	1.4481
x1 = 0.5116	1.4445
x1 = 0.5769	1.4361
x1 = 0.6338	1.4272
x1 = 0.7247	1.4154
x1 = 0.8136	1.4026
x1 = 0.9006	1.3903
x1 = 1	1.3774

COC(C)=O [methyl ethanoate] + COc1ccccc1
Settings	refractive index
[1], x1 = 1	1.3615

COc1ccccc1 [anisole] + CCOC(C)=O
[1]
Settings	refractive index
x2 = 0	1.5168
x2 = 0.1318	1.5002
x2 = 0.1651	1.4954
x2 = 0.1818	1.4935
x2 = 0.2131	1.4896
x2 = 0.2301	1.4867
x2 = 0.3334	1.4735
x2 = 0.3472	1.4712
x2 = 0.4119	1.4619
x2 = 0.4709	1.4548
x2 = 0.4899	1.4518
x2 = 0.5481	1.4426
x2 = 0.6353	1.431
x2 = 0.6467	1.4243
x2 = 0.718	1.4201
x2 = 0.7382	1.4142
x2 = 0.8354	1.3989
x2 = 0.9091	1.3874

CCCOC(C)=O [propyl ethanoate]
[2]
Settings	refractive index
293.15 K, 93.9 kPa	1.3841
298.15 K, 101.33 kPa	1.38406

Settings	vapor or sublimation pressure [kPa]
[3], 372.17 K	93.9

COc1ccccc1 [anisole] + CCCOC(C)=O
[1]
Settings	refractive index
x2 = 0	1.5168
x2 = 0.1119	1.5019
x2 = 0.1399	1.4979
x2 = 0.1575	1.4954
x2 = 0.2187	1.4875
x2 = 0.2418	1.4844
x2 = 0.3387	1.4706
x2 = 0.354	1.4687
x2 = 0.4168	1.4603
x2 = 0.4759	1.4525
x2 = 0.533	1.4451
x2 = 0.5833	1.4381
x2 = 0.6096	1.435
x2 = 0.6683	1.4268
x2 = 0.7081	1.4203
x2 = 0.8047	1.4093
x2 = 0.8978	1.3968

COc1ccccc1 [anisole] + CC(=O)OC(C)C
Settings	refractive index
[1], x2 = 0	1.5167

CCCOC(C)=O [propyl ethanoate] + COc1ccccc1
Settings	refractive index
[1], x1 = 1	1.3841

CCOC(C)=O [ethyl acetate] + COc1ccccc1
Settings	refractive index
[1], x1 = 1	1.3724

COc1ccccc1 [anisole] + COC(C)=O
[1]
Settings	refractive index
x2 = 0	1.5168
x2 = 0.1432	1.4995
x2 = 0.1704	1.497
x2 = 0.2986	1.4855
x2 = 0.3004	1.4826
x2 = 0.3323	1.4777
x2 = 0.41	1.4692
x2 = 0.4439	1.4625
x2 = 0.5057	1.4542
x2 = 0.5405	1.451
x2 = 0.6003	1.4372
x2 = 0.6354	1.4327
x2 = 0.6972	1.4233
x2 = 0.814	1.3994
x2 = 0.8577	1.3909
x2 = 0.9391	1.3743

COc1ccccc1 [anisole]
[2]
Settings	refractive index
293.15 K, 93.9 kPa	1.5168 and 1.5167
298.15 K, 101.33 kPa	1.51554

Settings	vapor or sublimation pressure [kPa]
[3], 423.92 K	93.9

COC(C)=O [methyl ethanoate]
[2]
Settings	refractive index
293.15 K, 93.9 kPa	1.3615
298.15 K, 101.33 kPa	1.36146

Settings	vapor or sublimation pressure [kPa]
[3], 327.9 K	93.9

CCOC(C)=O [ethyl acetate]
[2]
Settings	refractive index
293.15 K, 93.9 kPa	1.3724
298.15 K, 101.33 kPa	1.37244

Settings	vapor or sublimation pressure [kPa]
[3], 347.92 K	93.9

CC(=O)OC(C)C [1-methylethyl ethanoate]
[2]
Settings	refractive index
293.15 K, 93.9 kPa	1.3774
298.15 K, 101.33 kPa	1.37739

Settings	vapor or sublimation pressure [kPa]
[3], 359.68 K	93.9
